According to patent US10000500B2 (PROMEGA CORPORATION, priority 2016, dated 2018):

biological target: NANOLUC® Luciferase (Oplophorus gracilirostris, UniProt Q9GV45, A31E/A60N/A81I/F95D/I117V/K70R/L54V/L99Q/M102K/N193R/P142E/Q151K/Q38R/Q45L/V71I/Y165I); assay: Luminescence assay with purified NANOLUC luciferase (Example 7); assay type: biochemical; conditions: bioluminescence with NANOLUC luciferase
Procedure: Each compound to be screened was dissolved in DMSO (5 mM) and then further diluted to 100 uM in NANO-GLO® Luciferase Assay Buffer. Each diluted substrate was then combined in equal volumes with purified NANOLUC® Luciferase diluted into CO2 independent media+10% FBS. Initial light output for each substrate was measured in a GLOMAXI-Multi+luminometer three minutes after substrate addition and then at five minute intervals as a means to determine signal half-life.
The synthesized coelenterazine analogues (compounds of formula (I) and (II)) were evaluated for their suitability as luciferase substrates. NANOLUC® luciferase was employed for the screening because it is a small (19 kDa), stable, and particularly bright enzyme.

NANOLUC® Luciferase, sequence (Q9GV45 28-196 with tags or gaps with the stated changes limits assumed): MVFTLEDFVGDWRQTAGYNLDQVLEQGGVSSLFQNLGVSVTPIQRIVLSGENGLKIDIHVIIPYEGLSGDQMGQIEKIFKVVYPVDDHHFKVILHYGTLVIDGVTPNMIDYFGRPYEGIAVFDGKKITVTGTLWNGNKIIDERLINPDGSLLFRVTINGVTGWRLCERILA

Structure (SMILES) | λmax, nm
Nc1ccc(-c2cn3c(=O)c(Cc4ccco4)nc-3c(-c3ccnc(Cl)c3)[nH]2)cc1 | 571 nm
O=c1c(Cc2ccco2)nc2c(-c3ccco3)[nH]c(-c3ccco3)cn1-2 [AS-175, 6,8-di(furan-2-yl)-2-(furan-2-ylmethyl)imidazo[1,2-a]pyrazin-3(7H)-one] | 514 nm
O=c1c(Cc2ccco2)nc2c(-c3cccs3)[nH]c(-c3cccs3)cn1-2 [AS-176, 2-(furan-2-ylmethyl)-6,8-di(thiophen-2-yl)imidazo[1,2-a]pyrazin-3(7H)-one] | 496 nm
Cn1cc(-c2[nH]c(-c3ccn(C)n3)cn3c(=O)c(Cc4ccco4)nc2-3)cn1 [AS-190, 2-(furan-2-ylmethyl)-6-(1-methyl-1H-pyrazol-3-yl)-8-(1-methyl-1H-pyrazol-4-yl)imidazo[1,2-a]pyrazin-3(7H)-one] | 496 nm
O=c1c(Cc2ccco2)nc2c(-c3cccc4ccccc34)[nH]c(-c3ccccc3)cn1-2 [AS-215, 2-(furan-2-ylmethyl)-8-(naphthalen-1-yl)-6-phenylimidazo[1,2-a]pyrazin-3(7H)-one] | 517 nm
CN(C)c1ccc(-c2[nH]c(-c3ccccc3)cn3c(=O)c(Cc4ccco4)nc2-3)cc1 [AS-224, 8-(4-(dimethylamino)phenyl)-2-(furan-2-ylmethyl)-6-phenylimidazo[1,2-a]pyrazin-3(7H)-one] | 502 nm
O=c1c(Cc2ccco2)nc2c(-c3ccsc3)[nH]c(-c3ccccc3)cn1-2 [AS-229, 2-(furan-2-ylmethyl)-6-phenyl-8-(thiophen-3-yl)imidazo[1,2-a]pyrazin-3(7H)-one] | 496 nm
O=c1c(Cc2ccco2)nc2c(-c3cccs3)[nH]c(-c3ccccc3)cn1-2 [AS-236, 2-(furan-2-ylmethyl)-6-phenyl-8-(thiophen-2-yl)imidazo[1,2-a]pyrazin-3(7H)-one] | 514 nm
N#Cc1ccc(-c2[nH]c(-c3ccccc3)cn3c(=O)c(Cc4ccco4)nc2-3)cc1 [AS-237, 4-(2-(furan-2-ylmethyl)-3-oxo-6-phenyl-3,7-dihydroimidazo[1,2-a]pyrazin-8-yl)benzonitrile] | 559 nm
O=c1c(Cc2ccco2)nc2c(C#Cc3ccccc3)[nH]c(-c3ccccc3)cn1-2 [AS-242, 2-(furan-2-ylmethyl)-6-phenyl-8-(phenylethynyl)imidazo[1,2-a]pyrazin-3(7H)-one] | 517 nm
O=c1c(Cc2ccco2)nc2c(-c3ccccc3)[nH]c(-c3ccccc3)c(-c3ccccc3)n1-2 [AS-248, 2-(furan-2-ylmethyl)-5,6,8-triphenylimidazo[1,2-a]pyrazin-3(7H)-one] | 520 nm
O=c1c(Cc2ccco2)nc2c(-c3ccc4scnc4c3)[nH]c(-c3ccccc3)cn1-2 [AS-250, 8-(benzo[d]thiazol-5-yl)-2-(furan-2-ylmethyl)-6-phenylimidazo[1,2-a]pyrazin-3(7H)-one] | 511 nm
Cn1cc(-c2[nH]c(-c3ccccc3)cn3c(=O)c(Cc4ccco4)nc2-3)ccc1=O [AS-256, 2-(furan-2-ylmethyl)-8-(1-methyl-6-oxo-1,6-dihydropyridin-3-yl)-6-phenylimidazo[1,2-a]pyrazin-3(7H)-one] | 496 nm
O=c1c(Cc2ccco2)nc2c(-c3ccc(F)cc3)[nH]c(-c3ccccc3)cn1-2 [AS-269, 8-(4-fluorophenyl)-2-(furan-2-ylmethyl)-6-phenylimidazo[1,2-a]pyrazin-3(7H)-one] | 490 nm
O=c1c(Cc2ccco2)nc2c(-c3cc(F)c(F)c(F)c3)[nH]c(-c3ccccc3)cn1-2 [AS-270, 2-(furan-2-ylmethyl)-6-pheny1-8-(3,4,5-trifluorophenyl)imidazo[1,2-a]pyrazin-3(7H)-one] | 502 nm
O=c1c(Cc2ccco2)nc2c(-c3ccnc(F)c3)[nH]c(-c3ccccc3)cn1-2 [AS-271, 8-(2-fluoropyridin-4-yl)-2-(furan-2-ylmethyl)-6-phenylimidazo[1,2-a]pyrazin-3(7H)-one] | 532 nm
O=c1c(Cc2ccco2)nc2c(-c3cccnc3F)[nH]c(-c3ccccc3)cn1-2 [AS-272, 8-(2-fluoropyridin-3-yl)-2-(furan-2-ylmethyl)-6-phenylimidazo[1,2-a]pyrazin-3(7H)-one] | 508 nm
O=c1c(Cc2ccco2)nc2c(-c3ccc(F)nc3)[nH]c(-c3ccccc3)cn1-2 [AS-273, 8-(6-fluoropyridin-3-yl)-2-(furan-2-ylmethyl)-6-phenylimidazo[1,2-a]pyrazin-3(7H)-one] | 496 nm
N#Cc1cccc(-c2[nH]c(-c3ccccc3)cn3c(=O)c(Cc4ccco4)nc2-3)c1 [AS-274, 3-(2-(furan-2-ylmethyl)-3-oxo-6-phenyl-3,7-dihydroimidazo[1,2-a]pyrazin-8-yl)benzonitrile] | 514 nm

Structure (SMILES) | λmax, nm
O=c1c(Cc2ccco2)nc2c(-c3ccnc(Cl)c3)[nH]c(-c3ccccc3)cn1-2 [AS-275, 8-(2-chloropyridin-4-yl)-2-(furan-2-ylmethyl)-6-phenylimidazo[1,2-a]pyrazin-3(7H)-one] | 535 nm
O=c1c(Cc2ccco2)nc2c(-c3ccncc3)[nH]c(-c3ccccc3)cn1-2 [AS-276, 2-(furan-2-ylmethyl)-6-phenyl-8-(pyridin-4-yl)imidazo[1,2-a]pyrazin-3(7H)-one] | 523 nm
O=c1c(Cc2ccco2)nc2c(-c3cccnc3)[nH]c(-c3ccccc3)cn1-2 [AS-277, 2-(furan-2-ylmethyl)-6-phenyl-8-(pyridin-3-yl)imidazo[1,2-a]pyrazin-3(7H)-one] | 517 nm
O=c1c(Cc2ccco2)nc2c(-c3cccnc3Cl)[nH]c(-c3ccccc3)cn1-2 [AS-278, 8-(2-chloropyridin-3-yl)-2-(furan-2-ylmethyl)-6-phenylimidazo[1,2-a]pyrazin-3(7H)-one] | 499 nm
O=c1c(Cc2ccco2)nc2c(-c3ccc(Cl)s3)[nH]c(-c3ccccc3)cn1-2 [AS-280, 8-(5-chlorothiophen-2-yl)-2-(furan-2-ylmethyl)-6-phenylimidazo[1,2-a]pyrazin-3(7H)-one] | 523 nm
O=c1c(Cc2ccco2)nc2c(-c3sccc3Cl)[nH]c(-c3ccccc3)cn1-2 [AS-282, 8-(3-chlorothiophen-2-yl)-2-(furan-2-ylmethyl)-6-phenylimidazo[1,2-a]pyrazin-3(7H)-one] | 505 nm
N#Cc1c(-c2ccccc2)[nH]c(-c2ccnc(F)c2)c2nc(Cc3ccco3)c(=O)n1-2 [AS-301, 8-(2-fluoropyridin-4-yl)-2-(furan-2-ylmethyl)-3-oxo-6-phenyl-3,7-dihydroimidazo[1,2-a]pyrazine-5-carbonitrile] | 529 nm
O=c1c(Cc2ccco2)nc2c(-c3ccnc(F)c3)[nH]c(-c3cccs3)cn1-2 [AS-306, 8-(2-fluoropyridin-4-yl)-2-(furan-2-ylmethyl)-6-(thiophen-2-yl)imidazo[1,2-a]pyrazin-3(7H)-one] | 544 nm
Cn1c(C#N)ccc1-c1[nH]c(-c2ccccc2)cn2c(=O)c(Cc3ccco3)nc1-2 [AS-311, 5-(2-(furan-2-ylmethyl)-3-oxo-6-phenyl-3,7-dihydroimidazo[1,2-a]pyrazin-8-yl)-1-methyl-1H-pyrrole-2-carbonitrile] | 505 nm
O=c1c(Cc2ccco2)nc2c(-c3ccnc(Br)c3)[nH]c(-c3ccccc3)cn1-2 [AS-314, 8-(2-bromopyridin-4-yl)-2-(furan-2-ylmethyl)-6-phenylimidazo[1,2-a]pyrazin-3(7H)-one] | 538 nm
Nc1ccc(-c2cn3c(=O)c(Cc4ccco4)nc-3c(-c3ccnc4ccccc34)[nH]2)cc1 [AS-330, 6-(4-aminopheny1)-2-(furan-2-ylmethyl)-8-(quinolin-4-yl)imidazo[1,2-a]pyrazin-3(7H)-one] | 583 nm
N#Cc1ccc(-c2[nH]c(-c3ccc(N)cc3)cn3c(=O)c(Cc4ccco4)nc2-3)s1 [AS-332, 5-(6-(4-aminophenyl)-2-(furan-2-ylmethyl)-3-oxo-3,7-dihydroimidazo[1,2-a]pyrazin-8-yl)thiophene-2-carbonitrile] | 598 nm
N#Cc1ccc(-c2[nH]c3c(n4c(=O)c(Cc5ccco5)nc2-4)CCc2ccccc2-3)s1 [AS-340, 5-(2-(furan-2-ylmethyl)-3-oxo-3,5,6,11-tetrahydrobenzo[f]imidazo[1,2-a]quinoxalin-12-yl)thiophene-2-carbonitrile] | 574 nm
O=c1c(Cc2ccco2)nc2c(-c3ccnc4ccccc34)[nH]c3c(n1-2)CCc1ccccc1-3 [AS-341, 2-(furan-2-ylmethyl)-12-(quinolin-4-yl)-5,11-dihydrobenzo[f]imidazo[1,2-a]quinoxalin-3(6H)-one] | 583 nm
O=c1c(Cc2ccco2)nc2c(-c3ccnc(Cl)c3)[nH]c3c(n1-2)CCc1ccccc1-3 [AS-342, 12-(2-chloropyridin-4-yl)-2-(furan-2-ylmethyl)-5,11-dihydrobenzo[f]imidazo[1,2-a]quinoxalin-3(6H)-one] | 538 nm
Nc1cccc(-c2cn3c(=O)c(Cc4ccco4)nc-3c(Cc3ccccc3)[nH]2)c1 [JRW-0438, 6-(3-aminophenyl)-8-benzyl-2-(furan-2-ylmethyl)imidazo[1,2-a]pyrazin-3(7H)-one] | 487 nm
Nc1ccc(-c2cn3c(=O)c(Cc4ccco4)nc-3c(Cc3ccccc3)[nH]2)cc1 [JRW-0445, 6-(4-aminophenyl)-8-benzyl-2-(furan-2-ylmethyl)imidazo[1,2-a]pyrazin-3(7H)-one] | 502 nm
Nc1ccccc1-c1cn2c(=O)c(Cc3ccco3)nc-2c(Cc2ccccc2)[nH]1 [JRW-0446, 6-(2-aminophenyl)-8-benzyl-2-(furan-2-ylmethyl)imidazo[1,2-a]pyrazin-3(7H)-one] | 487 nm
